In PubChem BioAssay AID2060890 (Molecular Pharmacology Branch, DTP, NCI, 2025):

Test system: LG0703-F948-PDC complex spheroid viability
Experiment: Anticancer human tumor LG0703-F948-PDC patient-derived lung adenocarcinoma cell line growth inhibition [RAS]
Details: for IC50: curve of first compound; for viability, T/C: stronger effect = lower value
Outline: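 Multi-cell-type spheroids: tumor cells plus HUVEC endothelial cells and mesenchymal stem cells. RAS-pathway inhibitors were combined with targeted agents, each dosed in half-log steps down from clinical Cmax, or from 10 microM when Cmax was unknown.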
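Also: spheroids exposed to agents for 7 days.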
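For viability, T/C in this document: 100% = DMSO vehicle wells.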

Nc1ccn(C2OC(CO)C(O)C2(F)F)c(=O)n1 (centres undefined) + CCn1c(-c2cc(N3CCN(C)CC3)cnc2C(C)OC)c2c3cc(ccc31)-c1csc(n1)CC(NC(=O)C1CC1C)C(=O)N1CCCC(N1)C(=O)OCC(C)(C)C2
IC50 (second compound 0.000949 µM): 6.69 nM
IC50 (second compound 0.003 µM): < 3.16 nM
IC50 (second compound 0.00949 µM): < 3.16 nM
IC50 (second compound 0.03 µM): < 3.16 nM
IC50 (second compound 0.0949 µM): < 3.16 nM
IC50 (second compound 0.3 µM): < 3.16 nM
viability, T/C (second compound 0.000949 µM, first compound 0.00316 µM): 65.9%
viability, T/C (second compound 0.000949 µM, first compound 0.01 µM): 42.5%
viability, T/C (second compound 0.000949 µM, first compound 0.0316 µM): 33.1%
viability, T/C (second compound 0.000949 µM, first compound 0.1 µM): 40.5%
viability, T/C (second compound 0.000949 µM, first compound 0.316 µM): 39.5%
viability, T/C (second compound 0.000949 µM, first compound 1 µM): 36.2%
viability, T/C (second compound 0.003 µM, first compound 0.00316 µM): 46.4%
viability, T/C (second compound 0.003 µM, first compound 0.01 µM): 31.9%
viability, T/C (second compound 0.003 µM, first compound 0.0316 µM): 34.1%
viability, T/C (second compound 0.003 µM, first compound 0.1 µM): 28.7%
viability, T/C (second compound 0.003 µM, first compound 0.316 µM): 29.6%
viability, T/C (second compound 0.003 µM, first compound 1 µM): 32.8%
viability, T/C (second compound 0.00949 µM, first compound 0.00316 µM): 22.8%
viability, T/C (second compound 0.00949 µM, first compound 0.01 µM): 18.3%
viability, T/C (second compound 0.00949 µM, first compound 0.0316 µM): 17.4%
viability, T/C (second compound 0.00949 µM, first compound 0.1 µM): 13.7%
viability, T/C (second compound 0.00949 µM, first compound 0.316 µM): 19.2%
viability, T/C (second compound 0.00949 µM, first compound 1 µM): 18.3%
viability, T/C (second compound 0.03 µM, first compound 0.00316 µM): 10.1%
viability, T/C (second compound 0.03 µM, first compound 0.01 µM): 11.4%
viability, T/C (second compound 0.03 µM, first compound 0.0316 µM): 15.6%
viability, T/C (second compound 0.03 µM, first compound 0.1 µM): 14.2%
viability, T/C (second compound 0.03 µM, first compound 0.316 µM): 14.9%
viability, T/C (second compound 0.03 µM, first compound 1 µM): 10.5%
viability, T/C (second compound 0.0949 µM, first compound 0.00316 µM): 12.6%
viability, T/C (second compound 0.0949 µM, first compound 0.01 µM): 8.4%
viability, T/C (second compound 0.0949 µM, first compound 0.0316 µM): 9.27%
viability, T/C (second compound 0.0949 µM, first compound 0.1 µM): 9.86%
viability, T/C (second compound 0.0949 µM, first compound 0.316 µM): 8.62%
viability, T/C (second compound 0.0949 µM, first compound 1 µM): 8.16%
viability, T/C (second compound 0.3 µM, first compound 0.00316 µM): 10.5%
viability, T/C (second compound 0.3 µM, first compound 0.01 µM): 7.77%
viability, T/C (second compound 0.3 µM, first compound 0.0316 µM): 11%
viability, T/C (second compound 0.3 µM, first compound 0.1 µM): 6.54%
viability, T/C (second compound 0.3 µM, first compound 0.316 µM): 6.46%
viability, T/C (second compound 0.3 µM, first compound 1 µM): 5.98%

NC1c2ccccc2OC12CCN(c1cnc3c(N4CCCc5ncccc54)n[nH]c3n1)CC2 (centres undefined) + C=CC(=O)N1CCN(c2nc(OCC3CCCN3C)nc3c(F)c(-c4nc(N)cc(C)c4C(F)(F)F)c(Cl)cc23)C(C)C1
IC50 (second compound 0.00316 µM): 38.6 nM
IC50 (second compound 0.01 µM): 47.8 nM
IC50 (second compound 0.0316 µM): 42.8 nM
IC50 (second compound 0.1 µM): 51.7 nM
IC50 (second compound 0.316 µM): 59.1 nM
IC50 (second compound 1 µM): 41.6 nM
viability, T/C (second compound 0.00316 µM, first compound 0.0316 µM): 54.5%
viability, T/C (second compound 0.00316 µM, first compound 0.1 µM): 31.4%
viability, T/C (second compound 0.00316 µM, first compound 0.316 µM): 16%
viability, T/C (second compound 0.00316 µM, first compound 1 µM): 10.9%
viability, T/C (second compound 0.00316 µM, first compound 3.16 µM): 4.54%
viability, T/C (second compound 0.00316 µM, first compound 10 µM): 2.7%
viability, T/C (second compound 0.01 µM, first compound 0.0316 µM): 58.3%
viability, T/C (second compound 0.01 µM, first compound 0.1 µM): 35%
viability, T/C (second compound 0.01 µM, first compound 0.316 µM): 19.9%
viability, T/C (second compound 0.01 µM, first compound 1 µM): 8.08%
viability, T/C (second compound 0.01 µM, first compound 3.16 µM): 5.69%
viability, T/C (second compound 0.01 µM, first compound 10 µM): 1.86%
viability, T/C (second compound 0.0316 µM, first compound 0.0316 µM): 55.8%
viability, T/C (second compound 0.0316 µM, first compound 0.1 µM): 34.1%
viability, T/C (second compound 0.0316 µM, first compound 0.316 µM): 20.5%
viability, T/C (second compound 0.0316 µM, first compound 1 µM): 10.8%
viability, T/C (second compound 0.0316 µM, first compound 3.16 µM): 4.57%
viability, T/C (second compound 0.0316 µM, first compound 10 µM): 1.97%
viability, T/C (second compound 0.1 µM, first compound 0.0316 µM): 60.3%
viability, T/C (second compound 0.1 µM, first compound 0.1 µM): 35.2%
viability, T/C (second compound 0.1 µM, first compound 0.316 µM): 22.8%
viability, T/C (second compound 0.1 µM, first compound 1 µM): 7.04%
viability, T/C (second compound 0.1 µM, first compound 3.16 µM): 4.16%
viability, T/C (second compound 0.1 µM, first compound 10 µM): 1.66%
viability, T/C (second compound 0.316 µM, first compound 0.0316 µM): 69.5%
viability, T/C (second compound 0.316 µM, first compound 0.1 µM): 32.4%
viability, T/C (second compound 0.316 µM, first compound 0.316 µM): 17.3%
viability, T/C (second compound 0.316 µM, first compound 1 µM): 8.03%
viability, T/C (second compound 0.316 µM, first compound 3.16 µM): 4.54%
viability, T/C (second compound 0.316 µM, first compound 10 µM): 1.99%
viability, T/C (second compound 1 µM, first compound 0.0316 µM): 56.2%
viability, T/C (second compound 1 µM, first compound 0.1 µM): 30.1%
viability, T/C (second compound 1 µM, first compound 0.316 µM): 19.4%
viability, T/C (second compound 1 µM, first compound 1 µM): 8.31%
viability, T/C (second compound 1 µM, first compound 3.16 µM): 6.93%
viability, T/C (second compound 1 µM, first compound 10 µM): 3.04%
